The text below walks through data of a melting point compilation (Tetko et al.; mined from patent text by program, amines drawn as free bases though some values may be those of a salt).

The structures appear in SMILES notation. Residues, ends and D or L forms follow the SMILES beside them.

By melting point is commonly meant the temperature of the solid-liquid transition. On to `CCOC(=O)c1c(C(C)C)c(-c2ccc(F)cc2)cn1CC`, for which the melting point lay in the range of 74 to 76 °C.

`O=c1[nH]cnc2oc(-c3ccccc3)cc12` gave a melting point of 320 to 322 °C.

In the case of `CNc1nc(C)c(-c2ccnc(Nc3ccc(N4CCNCC4)cc3)n2)s1`, the melting point lay within 253 to 255 °C. `CNC(=S)NC1=NN(c2ccc(Cl)cc2)CC1` displayed a melting point of 237 °C. As for `CCCCOc1ccc(C(=O)N2CCCCc3sccc32)cc1`, the melting point lay within 87 to 90 °C.

Consider `CC1(C)CC(c2ccccn2)c2cc(C(N)=O)ccc2O1` (stereo not drawn), for which the melting point was in the range of 96 to 98 °C. `CCOC(=O)c1cnn2c1[nH]c(=O)c1cnc3c(cnn3CC)c12` had a melting point of 263 to 265 °C. Under `Cc1cccc(CC(=O)O)c1OCCCc1cn(-c2ccc(C(F)(F)F)nn2)nc1C(C)(C)C` stands 96 to 97 °C; under `OC(c1ccc2cc(-c3n[nH]c4ccsc34)[nH]c2c1)(C1CC1)C1CC1`, 110 to 112 °C; under `O=C1Cc2cc(F)ccc2N1`, 131 to 133 °C.

`Nc1nnc(C(F)(F)C(Cl)Cl)s1` gave a melting point of 181 to 182 °C. As for `CCOC(=O)c1c(O)c2cc(Cl)cnc2n(Cc2ccc(OC)cc2)c1=O`, the figure is 185 to 187 °C; as for `CCCCn1c(=O)n(C)c(=O)c2nc(-c3ccc(/C=C/C(=O)O)cc3)[nH]c21`, greater than 300 °C; as for `CCCNC(=O)NS(=O)(=O)N1CCC(CCNC(=O)c2cc(Cl)ccc2OC)CC1`, 140 to 142 °C. Under `COC(=O)C1=C(C)Nc2ncnn2C1c1cccs1` (stereo not drawn) stands 239 to 240 °C; under `O=C(O)c1ccc(-c2nc(-c3ccccc3C(F)(F)F)cs2)cc1`, 225 to 227 °C; under `Cc1nc(-c2cc(C)c(OCCCc3cnc4ccccc4c3)c(C)c2)no1`, 105 to 107 °C. `O=C(O)CCSC1c2cc(OCc3ccc4ccc(Cl)cc4n3)ccc2OCc2c(-c3nnn[nH]3)cccc21` (stereo not drawn) yielded a melting point of 122 to 125 °C.

Molecule `CSc1nc(N)c([N+](=O)[O-])c(N2CCS(=O)CC2)n1` gave a melting point of 239 to 242 °C.

As for `Oc1ccc(Nc2cc(-c3cn(C(c4ccccc4)(c4ccccc4)c4ccccc4)nc3-c3ccccn3)ccn2)cc1`, the melting point stood at 198 °C.

Consider `Cc1cc(C(=NO)c2cccs2)cc(C)c1OCC(=O)O`, for which the melting point amounted to 152 °C. The molecule `CN1C(=O)N(CC(CS(=O)(=O)c2ccc(Oc3ccc(Cl)cc3)cc2)N(O)C=O)C(=O)C1(C)C` (single isomer, unassigned; (-)) registered a melting point of 111 °C. As to `CCCCCC(=O)Oc1c(-c2ccc(-c3ccccc3)cc2)nc2ccc(F)cc2c1C(=O)O`, the melting point was in the range of 179 to 206 °C. `O=C(N[C@H](Cc1ccc(C(F)(F)F)cc1)[C@@H](O)c1ccc(F)cc1)c1ccnc2ccccc12` (racemic): the melting point was in the range of 227 to 228 °C. As for `Cc1cccc(-c2nccc(-c3ccccc3C)n2)n1`, the figure is 119 °C; as for `NC(N)=Nc1nc(-c2cccc(CNC(=O)CSCc3ccco3)n2)cs1`, 182 °C. In the case of `CC(C)=CCC/C(C)=C/CSc1nc2ccccc2[nH]1`, the melting point fell in the range of 98 to 100 °C. As for `O=C(Nc1ccc(C(=O)Nc2ccc(Br)cn2)cn1)c1ccc(Br)nc1`, the figure is 245 to 247 °C; as for `CC(NC(=O)C(N)Cc1ccccc1)C(=O)NCC(=O)NC(Cc1ccccc1)C(=O)NCC(=O)NC(CCCNC(=N)N)C(=O)O` (stereo not drawn) (H-FAGFGR-OH; configuration not given here), 154 to 156 °C; as for `CCc1cc(S(=O)(=O)N(C)C)ccc1-c1cnc2[nH]c(CCc3cc(OC)ccn3)nc2c1`, 179 to 180 °C. Under `CN(Cc1ccncc1)Cc1ccc(CCC(=O)Nc2ccc(-c3ccc(Cl)cc3)cc2)cc1` stands 102 °C.

`CC(C)(C)OC(=O)NCCOc1noc2cccc(C#N)c12` showed a melting point of 116 to 117 °C. `O=C1C2=C(CCCC2)C(=O)N1c1cc(CO)c(Cl)cc1F`: the melting point was in the range of 135 to 137 °C.
